Assay [1] concerns the target T1, proteasome activity in SK-N-SH neuroblastoma cells (Homo sapiens, UniProt P28074).
T1 construct: endogenous in cells; host or cells: SK-N-SH
T1 sequence (P28074 60-263): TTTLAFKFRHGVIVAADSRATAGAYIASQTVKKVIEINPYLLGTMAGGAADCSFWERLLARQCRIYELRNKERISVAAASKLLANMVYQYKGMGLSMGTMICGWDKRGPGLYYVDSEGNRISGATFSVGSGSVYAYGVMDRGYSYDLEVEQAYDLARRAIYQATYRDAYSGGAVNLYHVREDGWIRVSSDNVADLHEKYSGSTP
The assay is described as follows: Proteasome-Glo cell-based luminescent assay. The settings on record: 2 hours incubation. Here is the method: Syringolin A was tested as a proteasome inhibitor in vivo in cultured mammalian cancer cells. Inhibition of proteasome activity in human SK-N-SH neuroblastoma cells was measured using the Proteasome-Glo™ cell-based luminescent assay (Promega) in solid white 96-well microtiter cell culture plates. Ten μl of syringolin A (at various concentrations) was added to each well containing SK-N-SH cells (plated at a concentration of 1.0×10^5 cells/ml in 90 μl well volumes 24 hours prior) and a negative control and media only control were included. Cells were incubated with 1-100 μM syringolin A for 2 hours or 24 hours, and then equilibrated to room temperature for 15 minutes before 100 μl of Proteasome-Glo reagent (containing bioluminescent substrate Suc-LLVY-aminoluciferin) was added to the cells. Luminescence (indicated as relative luminescence units [RLU]) was read after 15-30 minutes on a Dynex MLX Luminometer.
To trace the kinetics of proteasome inhibition in the presence of syringolin, the same experiment was performed, but in this case, 100 μl of Proteasome-Glo reagent was added to cells first, followed by the addition of syringolin A at various concentrations, and the proteasome activity was measured over time.
The cell culture-based proteasome inhibition assay was performed as previously described (Groll et al. 2008. Nature 452:755-758, which is incorporated herein by reference in its entirety). Briefly, wells of white-walled 96-well microtiter cell culture plates were seeded at a density of 1×10^4 cells/well (SK-N-SH) or 5×10^3 cells/well (SKOV3) in 90 μl. After 24 hours, 10 μl GlbA or SylA were added at increasing concentrations (0-100 μM) and incubated for 2 hours. […] Cell Death Differ 9:1017-1025; Meng, et al. 1999. PNAS 96:10403-10408, each of which is incorporated herein by reference in its entirety) were used as positive and negative controls, respectively. Microtiter plates were then equilibrated to room temperature for 15 min before adding 100 μl of proteasome Glo™ reagent (containing bioluminescent substrate Suc-LLVY-aminoluciferin) per well. Luminescence was measured on a Dynex MLX luminometer, according to the manufacturer's instructions (Promega).

For assay [2], the target named is T2, human erythrocyte 20S proteasomes, chymotrypsin-like activity (Homo sapiens, UniProt P28074).
T2 construct: which contains human erythrocyte 20S proteasomes; purchased BIOMOL International AK-740; host or cells: human erythrocytes
It counts as biochemical. Here is the method:
A 100 μl reaction volume contained 2 μg/ml 20S proteasome, 100 μM substrate, and the desired concentrations of syringolin A in dilution buffer (50 mM Tris-HCl, pH 7.5, 25 mM KCl, 10 mM NaCl, 1 mM MgCl2). Epoximicin and MG132 (BIOMOL® International) were used as test inhibitors. The release of free AMC (7-amino-4-methylcoumarin) at 37° C. was monitored with an MWGt Sirius HT fluorescence microplate reader (BIO-TEK® Instruments) equipped with a 360 nm excitation and a 460 nm emission filter. Proteolytic activities were measured as the increase in relative fluorescence units (RFU) over time (FIG. 7A-C). […] The initial velocities (vi) were determined from the time derivative of these curves and plotted versus the corresponding inhibitor concentration ([I]). […] Using SigmaPlot, the data were fitted to the hyperbolic equation vi=c+[v0/(Ki′+[I])], where v0 is the velocity of the control. […] The rate of covalent inhibition (kassociation), which equals kobs/[I] was calculated over the range of inhibitor concentrations given in parentheses in FIG. 7D. Values in FIG. 7D represent means±standard deviation.
The fluorogenic substrates Suc-LLVY-AMC, Boc-LRR-AMC, and Z-LLE-AMC (BIOMOL® International) were used to monitor chymotrypsin-like, trypsin-like, and caspase-like activities, respectively. […] The release of free AMC (7-amino-4-methylcoumarin) at 37° C. was monitored with an MWGt Sirius HT fluorescence microplate reader (BIO-TEK® Instruments) equipped with a 360 nm excitation and a 460 nm emission filter.

Assay [3] relates to microtubule-associated protein 1 light chain 3 (LC3). In words: immunoblot of LC3 conversion (autophagy) in SK-N-SH cells. The settings on record: compared to untreated control cells. The class given is cell-based, human. The procedure:
To verify whether autophagy is induced in GlbA-treated cells, levels of microtubule-associated protein 1 light chain 3 (LC3), a reliable marker of autophagosomes, were measured. […] Therefore, this characteristic conversion of LC3 can be used to monitor autophagic activity. SK-N-SH cells were treated with GlbA in the presence or absence of 3-MA, and cell lysates were probed with LC3.
(In general: A western blot detects proteins with antibodies after separation by electrophoresis.)

Assay [4] deals with poly (ADP-ribose) polymerase (PARP). In words: Western blot of PARP cleavage in SK-N-SH cells. The class given is cell-based, human. The settings on record: Example 15, single agent. Here is the method:
The induction of an apoptotic response in cancer cells by the addition of syringolin A was verified by monitoring the cleavage of poly (ADP-ribose) polymerase (PARP), a common response during apoptosis. SK-N-SH cells were cultured in the presence or absence of 20 μM syringolin A for 0, 24 and 48 hours, and cell lysates were then generated as described in Example 4 and probed for the presence of PARP by Western blotting using rabbit polyclonal anti-PARP (#9542) (diluted 1:1000) and the HRP-linked anti-rabbit secondary antibody described in Example 4. The results were representative of four independent experiments. […] The treatment of cells for 48 hours further increased the levels of cleaved PARP, whereas noncleaved PARP disappeared. In a similar manner, syringolin A induced PARP cleavage in SKOV3 cells, but noncleaved PARP was still detected 48 hours after treatment (FIG. 5B).
The role of glidobactin A (GlbA) in apoptosis and its correlation with autophagy has not previously been examined. Therefore, in a series of experiments, cell lysates of SK-N-SH cells were treated with GlbA in the presence and absence of the autophagy inhibitor 3-methyladenine (3-MA) and probed for poly ADP-ribose polymerase (PARP). The cleavage of PARP produces a smaller 89 kDa fragment which is indicative of late apoptosis.

Another assay has as its system SK-N-SH cells. In words: Cytox-Glo cytotoxicity assay. To be noted: light microscope, 48 hours. It counts as cell-based, human. The procedure: Determination of potential cytotoxic effects by GlbA and/or […] was carried out by using the Cytox-Glo cytotoxicity assay, which measures “dead cell proteases” from cells that have lost membrane integrity. Briefly, cells were treated with a single concentration of compound for 48 hours in a final volume of 100 μl, after which 50 μl of AAF-Glo luminogenic peptide substrate (alanyl-alanyl-phenylalanyl-aminoluciferin) was added to each well and incubated for 15 min at room temperature. The luminescence was measured by a Dynex MLX luminometer to give a reading of cells with damaged membranes. Next, 50 μl of digitonin was added to each well and the samples incubated for 15 minutes at room temperature. Luminescence was measured a second time to determine total cell number. Controls included cells with vehicle only, media, and media with compound.
SK-N-SH cells were treated with 0.25 μM GlbA or 25 μM SylA and SKOV3 cells were treated with 1.0 μM GlbA or 25 μM SylA. As illustrated in FIGS. 16A and 16B, control cells (treated with DMSO and H2O representing GlbA and SylA controls, respectively) were viable and no cytotoxicity was detected.
To determine if autophagy plays a role in GlbA/SylA-induced cell death, levels of cytotoxicity in cells pre-treated with 3-methyladenine (3-MA), an established autophagy inhibitor, were measured using the assay described in Example 12.

For the next assay, the target named is T3, Papaya latex papain (Carica papaya, UniProt P00784).
T3 construct: Papaya latex papain (Sigma-Aldrich); purchased Sigma-Aldrich; host or cells: papaya latex
In words: SensoLyte Green Protease Fluorometric Assay, papain inhibition. The class given is biochemical. To be noted: syringolin A up to 500 μM. Here is the method: (§1) To test the specificity of syringolin A inhibition of proteasome activities, bovine pancreas trypsin (Pierce) and Papaya latex papain (Sigma-Aldrich) inhibition assays with syringolin A were performed with the SensoLyte™ Green Protease Fluorometric Assay Kit (AnaSpec., San Jose, Calif., USA) according to the instructions of the manufacturer. Reaction volumes of 100 μl contained an enzyme concentration of 200 ng/ml and various amounts of test inhibitors. Protease activity was monitored at 33° C. in a FluoroCount Microplate Fluorometer (FluoroCount, Packard, Canberra, Australia) using 485 nm excitation and a 550 nm emission filters.

The target of a further assay is T4, bovine pancreas trypsin (Bos taurus, UniProt P00760).
T4 construct: bovine pancreas trypsin (Pierce); purchased Pierce; host or cells: bovine pancreas
In words: SensoLyte Green Protease Fluorometric Assay, trypsin inhibition. It counts as biochemical. To be noted: syringolin A up to 500 μM. The procedure: as §1

The text below walks through data of US8597904B2, “Pharmaceutical compositions for the treatment of conditions responsive to proteasome inhibition” (priority 2007, dated 2013).

Residues, ends and D or L forms follow the SMILES beside them. *: point of attachment. Cbz = O=C(OCc1ccccc1)*

T4 sequence (P00760 24-246): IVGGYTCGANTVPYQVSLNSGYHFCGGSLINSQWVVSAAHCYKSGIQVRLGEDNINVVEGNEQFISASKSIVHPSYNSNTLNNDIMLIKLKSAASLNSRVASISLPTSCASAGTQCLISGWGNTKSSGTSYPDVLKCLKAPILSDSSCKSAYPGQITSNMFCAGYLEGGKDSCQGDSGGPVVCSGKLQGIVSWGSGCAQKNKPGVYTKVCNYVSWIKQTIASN
T3 sequence (P00784 134-345): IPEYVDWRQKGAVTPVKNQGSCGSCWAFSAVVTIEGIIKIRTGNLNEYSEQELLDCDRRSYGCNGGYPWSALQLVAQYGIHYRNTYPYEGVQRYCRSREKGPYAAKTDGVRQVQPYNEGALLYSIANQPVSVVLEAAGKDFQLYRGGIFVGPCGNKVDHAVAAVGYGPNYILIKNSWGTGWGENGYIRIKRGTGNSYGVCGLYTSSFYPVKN

Consider `C/C=C/C/C=C/CCC(=O)[C@H]1O[C@H]1C(N)=O` [cerulenin, reference compound], for which, in assay [1], the “proteasome activity in cells” value is “does not significantly inhibit proteasome activity”.

Take glidobactin A: the proteasome chymotrypsin-like activity entry in assay [2] (500-fold dilution of 10× concentrated HPLC peak) is on record as “reduced proteasome activity to background levels”.

As for `Cn1cnc(N)c2ncnc1-2` [3-MA, 3-methyladenine, reference compound], in assay [3], the “LC3-II amount / conversion of LC3” value was “did not alter the conversion of LC3”. The PARP cleavage entry in assay [4] is reported as “had no effect on PARP cleavage”. In the assay on SK-N-SH cells, the “cell proliferation and killing, 3-MA control cells” value is “suppresses SK-N-SH cell proliferation without killing cells”.

For the molecule `CC(C)C[C@@H](C=O)NC(=O)[C@H](CC(C)C)NC(=O)[C@H](CC(C)C)NC(=O)OCc1ccccc1` [MG-132, reference compound] (Cbz-Leu-Leu-Leu-aldehyde), the papain activity result at Papaya latex papain was “also inhibits cysteine proteases”. Besides, the trypsin activity result at bovine pancreas trypsin was “trypsin inhibitor”. For the same molecule, the “mode of proteasome inhibition (reaction velocity over time)” value in assay [2] is given as “reversible”.
